A word on the inhibition: it is the drop in the measured response relative to a control, in per cent.

The text below walks through data of patent publication EP0028279A1, “Phthalide-isoquinoline derivatives, their preparation and their use in medicaments” (CALAIRE CHIMIE S.A., priority 1979, dated 1981).

On the set-up of series [1]: species or system souris. The note with it: in vivo. The source says:
(§1) La toxicité a été déterminée de manière habituelle.

A short description of series [2]: Acute toxicity (LD50), oral, mouse. As to conditions: in vivo, read-out: DL 50 (the source's name).
Description: as §1

Series [3] addresses T1, histidine décarboxylase de rein de cobaye (Cavia porcellus, UniProt H0WB71).
T1 construct: le pourcentage de réduction de l'activité de l'enzyme du rein des animaux traités; from tissue; host or cells: guinea pig kidney
T1 sequence (H0WB71 1-642): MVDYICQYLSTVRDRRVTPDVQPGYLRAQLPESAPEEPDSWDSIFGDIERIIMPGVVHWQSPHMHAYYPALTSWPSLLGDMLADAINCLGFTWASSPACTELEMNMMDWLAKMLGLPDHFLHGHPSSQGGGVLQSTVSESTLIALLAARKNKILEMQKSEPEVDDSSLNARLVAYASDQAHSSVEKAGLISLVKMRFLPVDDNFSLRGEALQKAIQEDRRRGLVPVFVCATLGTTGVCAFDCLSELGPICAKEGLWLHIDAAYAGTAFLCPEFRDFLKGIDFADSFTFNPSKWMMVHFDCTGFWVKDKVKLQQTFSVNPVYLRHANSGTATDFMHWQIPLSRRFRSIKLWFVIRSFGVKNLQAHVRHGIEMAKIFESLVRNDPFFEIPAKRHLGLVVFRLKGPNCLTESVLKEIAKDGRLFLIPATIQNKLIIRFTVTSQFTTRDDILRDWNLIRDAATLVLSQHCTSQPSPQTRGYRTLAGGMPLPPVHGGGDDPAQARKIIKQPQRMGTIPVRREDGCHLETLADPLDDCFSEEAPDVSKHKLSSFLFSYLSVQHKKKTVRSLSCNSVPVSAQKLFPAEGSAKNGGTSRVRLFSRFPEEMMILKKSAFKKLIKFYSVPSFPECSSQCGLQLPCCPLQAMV
As to the kind of experiment: Kidney histidine decarboxylase activity after in vivo administration (method of Kosmicki et al.). The note with it: guinea pigs sacrificed 5 hours after administration, reduction versus controls, read-out: Activité exprimée en % d'inhibition de l'enzyme. An excerpt: L'activité du composé 458L a été comparée à celle de la tritoqualine qui est à la connaissance des Demandeurs, le seul produit utilisé en thérapeutique pour cette propriété. La technique de mesure de l'activité de l'histidine décarboxylase de rein de cobaye a été décrite par B. Kosmicki et al (J. Pharmacol. Paris 1974 - 5 - 3 - 331 - 342). Les cobayes ont été sacrifiés cinq heures après l'administration des substances étudiées. Il a été déterminé par rapport aux témoins le pourcentage de réduction de l'activité de l'enzyme du rein des animaux traités. Les résultats obtenus sont rapportés dans le tableau ci-dessous : […]

In the case of `CCOc1c(N)c2c(c(OCC)c1OCC)C(C1c3c(cc(OC)c(OC)c3OC)CCN1C)OC2=O` (stereo not shown) [458 L], the toxicité chronique result in series [1] is on record as “bonne tolérance”. Also, the LD50 in series [2] is about 6000 mg/kg. Further, in series [3], the inhibition at 10 mg/kg came to 14%, the inhibition at 20 mg/kg was determined as 21%, the inhibition at 40 mg/kg was found to be 31% and the inhibition at 60 mg/kg came out at 41%.
`CCOc1c(N)c2c(c(OCC)c1OCC)C(C1c3c(cc4c(c3OC)OCO4)CCN1C)OC2=O` (stereo not shown) [Tritoqualine, tritoqualine, reference compound]: in series [3], the inhibition at 10 mg/kg worked out at 10%, the inhibition at 20 mg/kg worked out at 20%, the inhibition at 40 mg/kg came out at 20% and the inhibition at 60 mg/kg was found to be 22%.
